{"source": "patent US8809303B2", "about": "“Methods of regulating actin cytoskeletal rearrangement and intercellular gap formation” (The University of North Carolina at Chapel Hill, priority 2008, dated 2014)", "type_in_all_cases": "cell-based", "key": {"[1]": {"tested_on": "human pulmonary microvascular endothelial cells (HMVECs)", "test": "Simulated cold IRI: cold ischemia in 4° C. PERFADEX, gaps in monolayer", "details": "CRX-526 pre-incubation; 4 hours of cold ischemia in 4° C. PERFADEX; FIG. 2A, 2B", "method": "FIG. 2A is a series of photographs of (from left to right) human pulmonary microvascular endothelial cells (HMVECs) in warm (37° C.) cell culture media (Control), of HMVECs after four hours of cold ischemia (CI) in 4° C. cell culture media (Media 4 hr CI), of HMVECs after four hours of cold ischemia in 4° C. PERFADEX™ (Vitrolife, Kungsbacka, Sweden) pulmonary preservation solution (Vehicle 4 hr CI), and of HMVECs that had been pre-incubated with CRX-526 and undergone four hours of cold ischemia in 4° C. PERFADEX™ (Vitrolife, Kungsbacka, Sweden) with CRX-526 (CRX-526 4 hr CI). The photographs are representative of 9 images taken for each set of conditions.\nFIG. 2B is a graph of the % area of gaps in the monolayer of human pulmonary microvascular endothelial cells (HMVECs) in cell culture media (Media), vehicle (i.e., PERFADEX™ (Vitrolife, Kungsbacka, Sweden)) or in vehicle after a 1 hour pre-treatment with CRX-526 and following either four hours of cold ischemia (4 hr CI), 1 hour of warm ischemia (WI), or following 1 hour of warm ischemia and 15 min, 1 hr, or 4 hr of reperfusion (15 min rep, 1 hr rep, and 4 hr rep, respectively). Data for the HMVECs in cell culture media without vehicle is shown in the open bars. […] The % gap area was quantified by MetaMorph® software (MDS Analytical Technologies, Inc., Sunnyvale, Calif., United States of America). *=p<0.01. […]"}, "[2]": {"tested_on": "human pulmonary microvascular endothelial cells (HMVECs)", "test": "Determination of viability for cell culture experiments (LDH activity, CytoTox96 assay) during simulated IRI", "details": "controls vs treated groups, all time points of simulated IRI", "method": "In separate experiments performed in triplicate, HMVECs grown to confluence on P35 dishes underwent simulated IRI. At the same time points, cells and cell culture media or Ringer's lactate were assessed for lactate dehydrogenase (LDH) activity using the CytoTox96 Non-Radioactive Cytotoxicity Assay (Promega, Madison, Wis., United States of America) following the manufacturer's instructions. Control samples were also taken at time zero and 24 hours to assess cell viability apart from the experimental model. Culture medium and Ringer's lactate were used as background controls to normalize the absorbance value from the other samples. Cytotoxicity was calculated as media LDH activity divided by total LDH activity (cell pellet plus media). Viability was the inverse and expressed as percent viability at each time point."}, "[3]": {"tested_on": "human pulmonary microvascular endothelial cells (HMVECs)", "test": "Cell culture model of warm lung IRI: simulated warm ischemia and reperfusion, phalloidin staining and image analysis", "details": "1 μg/mL CRX-526 vs vehicle", "method": "An in vitro normothermic (37° C.) model of IRI employing nutrient depletion in 100% oxygen to model ischemia was developed, with reperfusion modeled by supplying fresh medium to culture dishes in sealed PLEXIGLAS® containers. Human pulmonary microvascular endothelial cells (HMVECs) (Cambrex Bio Science, Walkersville, Md., United States of America) maintained in CLONETICS® EGM-2MV BULLETKITS® (Cambrex Bio Science, Walkersville, Md., United States of America), at 37° C. in a humidified incubator in 5% CO2 were seeded at 2000 cells/cm^2 on collagen-coated 30 mm diameter glass bottom dish coverslips (Mattek Corp., Ashland, Mass., United States of America) and grown until 100% confluent. Sealed PLEXIGLAS® containers housing culture dishes at 37° C. were ventilated with 95% O2/5% CO2. To model warm ischemia (WI), cell medium was suddenly replaced with 2 mL nutrient-depleted, pyrogen-free clinical grade Ringer's lactate. Dishes were pre-treated with 1 μg/mL CRX-526 (GlaxoSmithKline, Duluth, Minn., United States of America) or vehicle (2% glycerin), one hour before WI. CRX-526 or vehicle was added whenever medium was changed. After 1 hour of simulated WI, Ringer's lactate was replaced with EGM2-MV pyrogen-free medium to simulate reperfusion, ventilating the chamber with 5% CO2 in room air. Dishes were removed in triplicate during WI and reperfusion, and immediately fixed in 4% paraformaldehyde for phalloidin staining. Cells with inhibitor or vehicle maintained in EGM2-MV medium at 37° C. in humidified 5% CO2 incubator served as controls. Culture medium was changed at the same time that medium was changed in experimental dishes. Probes inserted through sealed ports continuously recorded temperature, and pH in a representative dish in the PLEXIGLAS® box using voltmeters with data output recorded by PicoRecorded software (Pico Technology, St. Neots, United Kingdom).\nHMVECs were fixed in 4% paraformaldehyde for 10 minutes at room temperature and washed 3 times with PBS. Cells were incubated for 1 hour with a 1/100 dilution of ALEXAFLOR® 568 phalloidin (Invitrogen, Carlsbad, Calif., United States of America) in PBS with 1% BSA and 0.05% Tween-20. Coverslips stained for F-actin were immediately examined with a Leica DMIRB Inverted Fluorescence/DIC microscope (Leica Microsystems, Inc., Bannockburn, Ill., United States of America) at 20× and 40× magnification to evaluate changes in cell shape and F-actin cytoskeleton. For each dish, three pictures were taken of contiguous fields near the center of the dish at 40× with a Kodak (Rochester, N.Y., United States of America) digital camera at the same exposure time. A masked observer assessed actin stress fiber pattern of each cell as normal or abnormal. Quantitative analysis of gap area was performed using METAMORPH® software (MDS Analytical Technologies, Inc., Sunnyvale, Calif., United States of America).\nAs described in Example 1, HMVECs grown to confluence on P30 dishes with integral cover slips were incubated with 1 μg/mL CRX-526 or vehicle, ventilated with 95% O2/5% CO2. Media was replaced with warm (37° C.)\nRinger's lactate and ventilated with 100% O2 to simulate warm ischemia. One hour later, Ringer's lactate was replaced with warm cell culture media, and chambers were ventilated with 95% room air/5% CO2 to simulate reperfusion. […]"}}, "data": [{"smiles": "CCCCCCCCCCC[C@H](CC(=O)N[C@H]1[C@H](OC[C@H](NC(=O)C[C@@H](CCCCCCCCCCC)OC(=O)CCCCC)C(=O)O)O[C@H](CO)[C@@H](OP(=O)(O)O)[C@@H]1OC(=O)C[C@@H](CCCCCCCCCCC)OC(=O)CCCCC)OC(=O)CCCCC", "note": "[CRX-526]", "values": [{"measurement": "gaps in monolayer", "setting": "[1]", "result": "much less obvious"}, {"measurement": "cell viability, quantified by LDH assay", "setting": "[2]", "result": "equivalent"}, {"measurement": "peripheral orientation of actin", "setting": "[3]; after 15 minutes simulated reperfusion, FIG. 1C", "result": "significantly reduced"}, {"measurement": "recovery of monolayer confluence", "setting": "[3]; after simulated reperfusion, FIG. 1B", "result": "regained confluence more quickly"}, {"measurement": "area of monolayer gaps", "setting": "[3]; during simulated warm ischemia, FIG. 1B", "result": "significantly reduced"}, {"measurement": "peripheral orientation of actin", "setting": "[3]; following 60 minutes of WI, FIG. 1C", "result": "significantly reduced"}, {"measurement": "percentage of cells with altered actin cytoskeleton", "setting": "[3]; monolayers in simulated warm IRI, FIG. 1C", "result": "decreased"}]}]}
